Assay results from patent US6479435B1, “Diaryl ethers and processes for their preparation and herbicidal and desiccant compositions containing them” (ISK Americas Incorporated, priority 1997, dated 2002).

Columns and labels:
Format in all cases: in vivo
[1] = system: redroot pigweed (Amaranthus retroflexus, AMARE); assay: Pre-emerge greenhouse herbicide test, phytotoxicity rating; settings: Amaranthus retroflexus, pre-emergence, 336 h, 14 days after application, rating scale 0-100; for pest or weed control at 125 g/ha: Rate 125 g al/ha; for pest or weed control at 500 g/ha: Rate 500 g al/ha
How it was run: (§1)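 Seeds sown in sandy loam one day before track-sprayer application of acetone solutions at 125–1000 g ai/ha (187 l/ha), then surface-watered to incorporate and bottom-watered. Injury scored visually at 14 days on a 0–100 scale (0 no damage, 100 complete death).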

[2] = system: green foxtail (Setaria viridis, SETVI); assay: as above; settings: Setaria viridis, pre-emergence, 336 h, 14 days after application, rating scale 0-100; for pest or weed control at 125 g/ha: Rate 125 g al/ha; for pest or weed control at 500 g/ha: Rate 500 g al/ha
How it was run: as §1

[3] = system: large crabgrass (Digitaria sanguinalis, DIGSA); assay: as above; settings: Digitaria sanguinalis, pre-emergence, 336 h, 14 days after application, rating scale 0-100; for pest or weed control at 125 g/ha: Rate 125 g al/ha; for pest or weed control at 500 g/ha: Rate 500 g al/ha
How it was run: as §1

[4] = system: barnyardgrass (Echinochloa crusgalli, ECHCG); assay: as above; settings: Echinochloa crus-galli, pre-emergence, 336 h, 14 days after application, rating scale 0-100; for pest or weed control at 125 g/ha: Rate 125 g al/ha; for pest or weed control at 500 g/ha: Rate 500 g al/ha
How it was run: as §1

[5] = system: velvetleaf (Abutilon theophrasti, ABUTH); assay: as above; settings: Abutilon theophrasti, pre-emergence, 336 h, 14 days after application, rating scale 0-100; for pest or weed control at 125 g/ha: Rate 125 g al/ha; for pest or weed control at 500 g/ha: Rate 500 g al/ha
How it was run: as §1

[6] = system: Johnsongrass (Sorghum halepense, SORHA); assay: as above; settings: Sorghum halepense, pre-emergence, 336 h, 14 days after application, rating scale 0-100; for pest or weed control at 125 g/ha: Rate 125 g al/ha; for pest or weed control at 500 g/ha: Rate 500 g al/ha
How it was run: as §1

[7] = system: ivyleaf morningglory (Ipomoea hederacea, IPOHE); assay: as above; settings: Ipomoea, pre-emergence, 336 h, 14 days after application, rating scale 0-100; for pest or weed control at 125 g/ha: Rate 125 g al/ha; for pest or weed control at 500 g/ha: Rate 500 g al/ha
How it was run: as §1

[8] = system: lambsquarters (Chenopodium album, CHEAL); assay: as above; settings: Chenopodium album, pre-emergence, 336 h, 14 days after application, rating scale 0-100; for pest or weed control at 125 g/ha: Rate 125 g al/ha; for pest or weed control at 500 g/ha: Rate 500 g al/ha
How it was run: as §1

[9] = system: sicklepod (Cassia obtusifolia, CASOB); assay: as above; settings: Senna obtusifolia, pre-emergence, 336 h, 14 days after application, rating scale 0-100; for pest or weed control at 125 g/ha: Rate 125 g al/ha; for pest or weed control at 500 g/ha: Rate 500 g al/ha
How it was run: as §1

[10] = system: redroot pigweed (Amaranthus retroflexus, AMARE); assay: Post-emerge greenhouse herbicide test, phytotoxicity rating; settings: Amaranthus retroflexus, post-emergence, 336 h, 14 days after application, scale 0-100; for pest or weed control at 63 g/ha: rate 63 g ai/ha; for pest or weed control at 500 g/ha: rate 500 g ai/ha
How it was run: (§2)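 Plants at the 2-3 leaf stage, sown 8-21 days earlier, were track-sprayed post-emergence with compound in acetone plus 0.25% v/v non-ionic surfactant at 63-1000 g ai/ha (187 l/ha). Damage was rated at 14 days on a 0-100 scale (0 none, 100 all plants dead), for both crop injury and weed control.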

[11] = system: green foxtail (Setaria viridis, SETVI); assay: as above; settings: Setaria viridis, post-emergence, 336 h, 14 days after application, scale 0-100; for pest or weed control at 63 g/ha: rate 63 g ai/ha; for pest or weed control at 500 g/ha: rate 500 g ai/ha
How it was run: as §2

[12] = system: large crabgrass (Digitaria sanguinalis, DIGSA); assay: as above; settings: Digitaria sanguinalis, post-emergence, 336 h, 14 days after application, scale 0-100; for pest or weed control at 63 g/ha: rate 63 g ai/ha; for pest or weed control at 500 g/ha: rate 500 g ai/ha
How it was run: as §2

[13] = system: ivyleaf morningglory (Ipomoea hederacea, IPOHE); assay: as above; settings: Ipomoea, post-emergence, 336 h, 14 days after application, scale 0-100; for pest or weed control at 63 g/ha: rate 63 g ai/ha; for pest or weed control at 500 g/ha: rate 500 g ai/ha
How it was run: as §2

[14] = system: lambsquarters (Chenopodium album, CHEAL); assay: as above; settings: Chenopodium album, post-emergence, 336 h, 14 days after application, scale 0-100; for pest or weed control at 63 g/ha: rate 63 g ai/ha; for pest or weed control at 500 g/ha: rate 500 g ai/ha
How it was run: as §2

[15] = system: sicklepod (Cassia obtusifolia, CASOB); assay: as above; settings: Senna obtusifolia, post-emergence, 336 h, 14 days after application, scale 0-100; for pest or weed control at 63 g/ha: rate 63 g ai/ha; for pest or weed control at 500 g/ha: rate 500 g ai/ha
How it was run: as §2

Compound | pest or weed control at 125 g/ha [1] | pest or weed control at 500 g/ha [1] | pest or weed control at 125 g/ha [2] | pest or weed control at 500 g/ha [2] | pest or weed control at 125 g/ha [3] | pest or weed control at 500 g/ha [3] | pest or weed control at 125 g/ha [4] | pest or weed control at 500 g/ha [4] | pest or weed control at 125 g/ha [5] | pest or weed control at 500 g/ha [5] | pest or weed control at 125 g/ha [6] | pest or weed control at 500 g/ha [6] | pest or weed control at 125 g/ha [7] | pest or weed control at 500 g/ha [7] | pest or weed control at 125 g/ha [8] | pest or weed control at 500 g/ha [8] | pest or weed control at 125 g/ha [9] | pest or weed control at 500 g/ha [9] | pest or weed control at 63 g/ha [10] | pest or weed control at 500 g/ha [10] | further results
O=c1n(-c2cc(Oc3ncccn3)c(Cl)cc2F)c(=S)n2n1CCCC2 [Compound 8-29, 2-[4-chloro-2-fluoro-5-(2-pyrimidyloxy)phenyl]hexahydro-3-thioxo-1H-[1,2,4]triazolo[1,2-a]pyridazin-1-one] | 100% | 100% | 100% | 100% | 100% | 100% | 100% | 100% | 100% | 100% | 100% | 100% | 100% | 100% | 100% | 100% | 100% | 100% | 100% | 100% | pest or weed control at 63 g/ha [11]: 90%; pest or weed control at 500 g/ha [11]: 100%; pest or weed control at 63 g/ha [12]: 50%; pest or weed control at 500 g/ha [12]: 100%; pest or weed control at 63 g/ha [13]: 100%; pest or weed control at 500 g/ha [13]: 100%; pest or weed control at 63 g/ha [14]: 100%; pest or weed control at 500 g/ha [14]: 100%; pest or weed control at 63 g/ha [15]: 100%; pest or weed control at 500 g/ha [15]: 100%
Nn1c(C(F)(F)F)cc(=O)n(-c2cc(Oc3ccc([N+](=O)[O-])cc3C(F)(F)F)c(Cl)cc2F)c1=O [Compound 9-22, 1-Amino-3-[4-chloro-2-fluoro-5-(4-nitro-2-trifluoromethylphenoxy)phenyl]-6-trifluoromethyl-1,2,3,4-tetrahydropyrimidine-2,4-dione] | 100% | 100% | 90% | 100% | 80% | 100% | 50% | 90% | 100% | 100% | 50% | 95% | 90% | 80% | 100% | 100% | 30% | 80% | 100% | 100% | pest or weed control at 63 g/ha [11]: 10%; pest or weed control at 500 g/ha [11]: 80%; pest or weed control at 63 g/ha [12]: 10%; pest or weed control at 500 g/ha [12]: 50%; pest or weed control at 63 g/ha [13]: 100%; pest or weed control at 500 g/ha [13]: 100%; pest or weed control at 63 g/ha [14]: 40%; pest or weed control at 500 g/ha [14]: 100%; pest or weed control at 63 g/ha [15]: 30%; pest or weed control at 500 g/ha [15]: 70%
Nn1c(C(F)(F)F)cc(=O)n(-c2cc(Oc3cc([N+](=O)[O-])cc(C(F)(F)F)c3)c(Cl)cc2F)c1=O [Compound 9-23, 1-Amino-3-[4-chloro-2-fluoro-5-(3-nitro-5-trifluoromethylphenoxy)phenyl]-6-trifluoromethyl-1,2,3,4-tetrahydropyrimidine-2,4-dione] | 100% | 100% | 40% | 100% | 10% | 95% | 10% | 70% | 40% | 100% | 10% | 70% | 0% | 0% | 95% | 100% | 0% | 10% | 85% | 85% | pest or weed control at 63 g/ha [11]: 0%; pest or weed control at 500 g/ha [11]: 10%; pest or weed control at 63 g/ha [12]: 0%; pest or weed control at 500 g/ha [12]: 0%; pest or weed control at 63 g/ha [13]: 50%; pest or weed control at 500 g/ha [13]: 75%; pest or weed control at 63 g/ha [14]: 70%; pest or weed control at 500 g/ha [14]: 95%; pest or weed control at 63 g/ha [15]: 10%; pest or weed control at 500 g/ha [15]: 30%
